Assay results from patent US20110166226A1, “PROCESS FOR OBTAINING AN EXTRACT RICH IN ROSMARINIC ACID (RA) FROM THE PLANT ORIGANUM VULGARE AND ITS USE FOR THE TREATMENT OF DIABETES” (ACEF S/A, priority 2008, published 2011).

Experiments:
Assay type in all cases: in vivo, rat
[1] = test system: diabetic rats induced by alloxan; test: Hypoglycemiant activity in diabetic rats induced by alloxan, 15 days oral treatment then follow-up without treatment; details: for plasmatic levels of glycemia: mean ± EPM
Procedure: The induction of diabetes in animals was done by using alloxan. The animals stayed in fasting for 24 hours before receiving injections of alloxan, so that the animals became more susceptive to diabetes. After a pilot study, the dose of alloxan that was used was 40 mg/kg injected via intravenous in caudal vein. Alloxan was diluted in sodium citrate 0.05M pH 4.5 and the injected volume was 500. During the four hours after the injection, the animals received glucose solution 5% via oral (ad libidum) in order to prevent from seizures and death, what is common in hypoglycemia. On the first two days after diabetes induction, the animals received an insulin injection (100 μl—diluted 1/10) at every 24 hs via subcutaneous (FIG. 3). This procedure guarantees animals to survive during the disease acute phase enabling the study. […] To use in the animals, it was employed corresponding doses, considering animals body mass, which is about 250 mg/kg of hydroalcoholic extract, 55 mL of infusion/rat and 25 mg/kg of RA. The animals received treatment via oral (v.o.), being maintained during a period of 40 days. The first 15 days evaluated by receiving treatment and the subsequent days with no treatment, so that it was possible to evaluate the potential to maintain the glycemic level. The obtained results are represented in the charts from FIGS. 4 to 7. As it can be observed in FIG. 4, the glycemic levels were monitored during 15 alternate days. After 15 days, the treatment was suspended (ST) and it was evaluated during 5, 10, 15 and 40 days. The data represent the mean±EPM, P<0.0001, when compared to the answer obtained for the groups DTE versus CD and CD versus CN (Anova followed by the Turkey-Kramer test). In FIG. 5, glycemic levels were monitored during 15 alternate days. After 15 days, the treatment was suspended (ST) and it was evaluated during 5, 10, 15 and 40 days. The data represent the mean±EPM, P<0.0001, when compared to the answer obtained for the groups DTAR versus CD and CD versus CN (Anova followed by the Turkey-Kramer test). In FIG. 6, glycemic levels were monitored during 15 alternate days. After 15 days, the treatment was suspended (ST) and it was evaluated during 5, 10, 15 and 40 days. The data represent the mean±EPM, P<0.0001, when compared to the answer obtained for the groups DTC versus CD and CD versus CN (Anova followed by the Turkey-Kramer test). In FIG. 7, glycemic levels were monitored during 15 alternate days. After 15 days, the treatment was suspended (ST) and it was evaluated during 5, 10, 15 and 40 days. The data represent the mean±EPM, P<0.0001, when compared to the answer obtained for the groups treated versus CD. (Anova followed by the Turkey-Kramer test).

[2] = test system: diabetic rats induced by alloxan; test: Glycemia monitored for 4 h (60, 120 and 240 minutes) in diabetic rats, chlorpropamide as positive control (FIG. 8); details: 25 mg/kg v.o., chlorpropamide 40 mg/kg as positive control (FIG. 8)
Procedure: FIG. 8—Graphic of the variation in plasmatic levels of glycemia (mg/dL), observed in the different experimental groups: Diabetic treated with hydroalcoholic extract (DTE, 250 mg/kg, v.o.), Diabetic treated with Rosmarinic Acid (DTRA, 25 mg/kg, v.o.), Diabetic treated with drugs in the market (Clorpropamida, 40 mg/kg), Diabetic Control (DC) and Normoglycemic Control (NC).
The induction of diabetes in animals was done by using alloxan. The animals stayed in fasting for 24 hours before receiving injections of alloxan, so that the animals became more susceptive to diabetes. After a pilot study, the dose of alloxan that was used was 40 mg/kg injected via intravenous in caudal vein. Alloxan was diluted in sodium citrate 0.05M pH 4.5 and the injected volume was 500. During the four hours after the injection, the animals received glucose solution 5% via oral (ad libidum) in order to prevent from seizures and death, what is common in hypoglycemia. On the first two days after diabetes induction, the animals received an insulin injection (100 μl—diluted 1/10) at every 24 hs via subcutaneous (FIG. 3). This procedure guarantees animals to survive during the disease acute phase enabling the study.
In FIG. 8, glycemic levels were monitored after 60, 120 and 240 minutes. […]

normal rats = test: Glycemic level in normal rats

SMILES: O=C(/C=C/c1ccc(O)c(O)c1)O[C@H](Cc1ccc(O)c(O)c1)C(=O)O [RA, rosmarinic acid]
- maintenance of the reduced glycemic level (result in words) ([1]; 25 mg/kg v.o., 15 days treatment, followed to 40 days without treatment (FIG. 5)): in addition of reducing, it kept the glycemic level to the end of the experience
- plasmatic levels of glycemia ([1]; 5 ST: 5 days with no treatment after the 15 days of treatment): 112.5 ± 5.00 mg/dL
- plasmatic levels of glycemia ([1]; 10 ST: 10 days with no treatment after the 15 days of treatment): 101.5 ± 19.13 mg/dL
- plasmatic levels of glycemia ([1]; 15 ST: 15 days with no treatment after the 15 days of treatment): 103.5 ± 10.78 mg/dL
- plasmatic levels of glycemia ([1]; 40 ST: 40 days with no treatment after the 15 days of treatment): 109.3 ± 9.87 mg/dL
- effect on level of plasmatic glycemic in diabetic rats (result in words) ([1]; diabetic rats): reducing the level of plasmatic glycemic in diabetic rats
- plasmatic levels of glycemia ([1]; evaluated day 0, v.o.: infusion 55 mL/rat, extract 250 mg/kg, RA 25 mg/kg): 362.6 ± 101.52 mg/dL
- plasmatic levels of glycemia ([1]; evaluated day 1 of treatment, v.o.: infusion 55 mL/rat, extract 250 mg/kg, RA 25 mg/kg): 136.6 ± 44.96 mg/dL
- plasmatic levels of glycemia ([1]; evaluated day 3 of treatment, v.o.: infusion 55 mL/rat, extract 250 mg/kg, RA 25 mg/kg): 114.0 ± 8.46 mg/dL
- plasmatic levels of glycemia ([1]; evaluated day 5 of treatment, v.o.: infusion 55 mL/rat, extract 250 mg/kg, RA 25 mg/kg): 71.5 ± 22.66 mg/dL
- plasmatic levels of glycemia ([1]; evaluated day 7 of treatment, v.o.: infusion 55 mL/rat, extract 250 mg/kg, RA 25 mg/kg): 124.5 ± 27.75 mg/dL
- plasmatic levels of glycemia ([1]; evaluated day 9 of treatment, v.o.: infusion 55 mL/rat, extract 250 mg/kg, RA 25 mg/kg): 100.1 ± 12.31 mg/dL
- plasmatic levels of glycemia ([1]; evaluated day 11 of treatment, v.o.: infusion 55 mL/rat, extract 250 mg/kg, RA 25 mg/kg): 108.0 ± 13.31 mg/dL
- plasmatic levels of glycemia ([1]; evaluated day 13 of treatment, v.o.: infusion 55 mL/rat, extract 250 mg/kg, RA 25 mg/kg): 92.1 ± 16.89 mg/dL
- plasmatic levels of glycemia ([1]; evaluated day 15 of treatment, v.o.: infusion 55 mL/rat, extract 250 mg/kg, RA 25 mg/kg): 102.0 ± 12.60 mg/dL
- effectiveness on glycemia monitored for 4 h (result in words) [2]: it was verified the effectiveness
- effect on glycemic level in normal rats (result in words) (normal rats): not reducing the glycemic level in normal rats
